# Measurements published in PubChem BioAssay (NCI).
# “And” between values parts separate entries of the source, which are not always exact repeats. Equal entries are not always repeated.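 Tested at 5 concentrations; 48 h exposure; 96-well plates; endpoints linearly interpolated, else capped at highest concentration. GI50 = concentration required for 50% inhibition of growth. TGI: total growth inhibition.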
# Columns and labels:
# Test in all cases: growth of human tumour cells (NCI), 48 h
# [1] = tested on: EKVX NSCLC
# [2] = tested on: HCC-2998 colon
# [3] = tested on: MALME-3M melanoma
# [4] = tested on: MOLT-4 leukemia
# [5] = tested on: NCI-H460 lung
# [6] = tested on: SK-OV-3 ovarian
# [7] = tested on: SNB-19 CNS
# [8] = tested on: UACC-257 melanoma
# [9] = tested on: UACC-62 melanoma
# [10] = tested on: UO-31 renal
Structure (SMILES),TGI [1],TGI [2],TGI [3],TGI [4],TGI [5],TGI [6],TGI [7],TGI [8],TGI [9],TGI [10],GI50 [3],GI50 [4],GI50 [1],GI50 [2],GI50 [6],GI50 [7],GI50 [9],GI50 [10],GI50 [5],GI50 [8]
COc1cc2c(cc1OC)-c1cc3cc(OC)c(OC)cc3c(C)[n+]1CC2 (tested in a mixture with another compound),> 100 µM,62.5 µM,> 100 µM,48.1 µM,71.2 µM,> 100 µM,> 100 µM,46.3 µM,95.5 µM,> 100 µM,,,,,,,,,,
COc1cccc2c1C(=O)c1c(O)c3c(c(O)c1C2=O)CC(O)(C(C)=O)CC3OC1OC(COC(C)=O)C(OC(C)=O)C(OC(C)=O)C1OC(C)=O (stereo not drawn),27.4 µM,,> 100 µM,36.9 µM,> 100 µM,> 100 µM,42.1 µM,36.6 µM,> 100 µM,> 100 µM,,,,,,,,,,
Oc1ccccc1CNCc1ccccc1O,> 100 µM,36.7 µM,> 100 µM,> 100 µM,> 100 µM,> 100 µM,> 100 µM,> 100 µM,> 100 µM,> 100 µM,,,,,,,,,,
O=C(N/N=C/c1cc(Cl)cc(Cl)c1[O-])c1ccccc1O.O=C(N/N=C/c1cc(Cl)cc(Cl)c1[O-])c1ccccc1O.[Cu+2],,1.46 µM,1.38 µM,2.12 µM,,1.38 µM,2.05 µM,0.914 µM,0.819 µM,1.41 µM,0.367 µM,0.285 µM,,,,,,,,
O=C(N/N=C/c1cc(Cl)cc(Cl)c1[O-])c1ccccc1O.O=C(N/N=C/c1cc(Cl)cc(Cl)c1[O-])c1ccccc1O.[Fe+2],41.9 µM,26.2 µM,61.9 µM,> 100 µM,38.5 µM,39.1 µM,46.2 µM,85.8 µM,52.4 µM,48.7 µM,22 µM,19.2 µM,18.1 µM,,,,,,,
CCN(CC)CCCNC(=O)c1ccccc1Nc1c(Cl)cccc1Cl,25 µM,21.3 µM,,27.9 µM,,27.7 µM,29.1 µM,7.45 µM,25.3 µM,20.3 µM,,,,,,,,,,
NCCNc1ccc(NCCN)c2c1C(=O)c1c(O)ccc(O)c1C2=O,1.3 µM and 0.435 µM,1.24 µM,1.46 µM and 1.34 µM,0.216 µM,0.159 µM and 0.178 µM,,1.14 µM and 0.254 µM,3.11 µM and 4.1 µM,0.89 µM and 0.313 µM,0.823 µM and 0.374 µM,0.112 µM,,0.112 µM,0.147 µM,0.0151 µM,0.0145 µM,0.0228 µM,0.0579 µM,,
Cn1cc(-c2csc(-c3cn(CCCN4CCCCC4)c4ccc(Br)cc34)n2)c2cccnc21,,3.61 µM,3.16 µM,,3.4 µM,3.9 µM,3.31 µM,3.43 µM,3.4 µM,2.89 µM,1.58 µM,,,1.86 µM,1.92 µM,1.83 µM,1.78 µM,1.51 µM,1.87 µM,1.8 µM
O=[N+]([O-])c1cc(C(F)(F)F)cc2c1SC1=Nc3ccccc3CN12,> 100 µM,> 100 µM,> 100 µM,> 100 µM,> 100 µM,> 100 µM,> 100 µM,> 100 µM,> 100 µM,> 100 µM,,,,,,,,,,
CC(=O)C(C(=O)C(=O)Nc1cc(Cl)c(Cl)cc1Cl)c1csc(N)n1 (stereo not drawn),> 100 µM,> 100 µM,,> 100 µM,> 100 µM,> 100 µM,> 100 µM,> 100 µM,> 100 µM,> 100 µM,,,,,,,,,,
O=c1[nH]c(Br)nc2n[nH]nc12,> 100 µM,> 100 µM,> 100 µM,44.3 µM,> 100 µM,> 100 µM,> 100 µM,> 100 µM,> 100 µM,> 100 µM,,,,,,,,,,
O=C(N/N=C/c1cc(Cl)cc(Cl)c1[OH2+])c1ccncc1.O=S(=O)([O-])[O-].[Fe+2],29 µM,> 100 µM,29.3 µM,40 µM,22.4 µM,> 100 µM,> 100 µM,41.7 µM,41 µM,31.1 µM,,,,,,,,,,
C[N+]1(C)C/C(=C\C=C\c2ccccc2)C(=O)/C(=C/C=C/c2ccccc2)C1,> 87.4 µM,34.2 µM,40.4 µM,16.6 µM,59.1 µM,98.8 µM,27.5 µM,26 µM,14.2 µM,> 100 µM,,,,,,,,,,
Nc1n[nH]c(N)n1,> 7740 µM,> 10000 µM,> 10000 µM,> 10000 µM,8220 µM,> 3570 µM,> 10000 µM,> 9050 µM,7470 µM,> 10000 µM,,,,,,,,,,
CCCCCC1CC(C(C)=O)CN1c1ccc(F)cc1 (stereo not drawn),> 100 µM,> 100 µM,> 100 µM,,> 100 µM,,> 10 µM,> 100 µM,,> 100 µM,,,,,,,,,,
Oc1c(Cl)c(Cl)c(O)c(-c2cnc(-c3ncc(-c4c(O)c(Cl)c(Cl)c(O)c4Cl)s3)s2)c1Cl,61.5 µM,> 100 µM,71.3 µM,> 100 µM,> 100 µM,> 100 µM,88.1 µM,97.8 µM,46.8 µM,58.7 µM,,,,,,,,,,
CC(=O)OC1(C)CC(C)C(=O)C(C(O)CC2CC(=O)NC(=O)C2)C1 (stereo not drawn),0.37 µM and 0.631 µM,0.0409 µM,0.375 µM and 0.753 µM,0.316 µM,0.363 µM and 0.224 µM,1.44 µM,0.598 µM,0.348 µM and 0.145 µM,0.0113 µM,0.643 µM and 0.389 µM,,,,,,,,,,
